52 compounds from PubChem BioAssay AID1996 can be followed below.

Converted amounts (≈) assume the structure as drawn.

The conditions of the data set: buffer; pH 7.4; 200.0 µM.
A word on the solubility (kinetic): it is solubility judged after dilution from a stock solution rather than from solid. `CC1CN(C(=O)COC(=O)c2cc3ccccc3cc2O)CC(C)O1` (configuration not stated) came in with a solubility (kinetic) of 12.7 µg/mL (≈ 37 µM).

As for `CCN(CC)CCNC(=O)c1ccc(N)cc1.Cl`, the kinetic solubility was over 40.8 µg/mL.

`CCc1ccc(OCC(=O)N2CCc3ccccc32)cc1` had a kinetic solubility of 0.9 µg/mL (≈ 3.2 µM).

`CC(C)(CO)NC(=O)c1ccc2c(c1)C(=O)c1ccccc1-2` had a solubility (kinetic) of 43.7 µg/mL (≈ 148 µM).

In the case of `COc1cc(Cl)c(C)cc1NC(=O)CSc1nnc(CN2CCCC2)o1`, the solubility (kinetic) was over 59.5 µg/mL.

The compound `O=C1OCC(c2ccc(Cl)s2)=C1c1ccccc1[N+](=O)[O-]` returned a solubility (kinetic) of 22.3 µg/mL (≈ 69.3 µM).

With `COc1ccccc1OCC(O)CN1CCN(CC(=O)Nc2c(C)cccc2C)CC1.Cl` (configuration not stated), the solubility (kinetic) is over 75.1 µg/mL.

Consider `O=C(OCCN=C1NS(=O)(=O)c2ccccc21)c1cccs1`, for which the kinetic solubility was 2.5 µg/mL (≈ 7.43 µM).

With `O=C(NCC1CCCCC1)c1ccccc1[N+](=O)[O-]`, the solubility (kinetic) is over 39.3 µg/mL.

On to `Cc1onc(-c2ccccc2)c1CNC(=O)Nc1ccc(C(F)(F)F)cc1`, for which the solubility (kinetic) came to 0.4 µg/mL (≈ 1.07 µM).

Turning to `Cc1c(NS(=O)(=O)c2cccc(C(=O)N3CCC(C)CC3)c2)c(=O)n(-c2ccccc2)n1C`, the kinetic solubility was over 70.3 µg/mL.

`CC(C)(C)CN1CCN(CCCc2ccccc2)C(CCO)C1` (configuration not stated) gave a solubility (kinetic) of 43.5 µg/mL (≈ 137 µM).

`COc1ccc(C(=O)Nc2cc(C)on2)cc1OC`: the solubility (kinetic) came out at 26.9 µg/mL (≈ 103 µM).

As for `COCCCNC(=O)c1ccc(CN2CCc3ccccc3C2)cc1`, the kinetic solubility was over 50.8 µg/mL.

The compound `Cc1nc(Sc2ccc(Cl)cc2)c(C#N)c(C)c1[N+](=O)[O-]` came in with a solubility (kinetic) of under 0.2 µg/mL.

`O=c1[nH]c2ccccc2nc1-c1ccc(Cl)cc1`: the solubility (kinetic) is under 0.3 µg/mL.

Take `O=C(OCC(=O)N1CCCCCC1)c1ccc(Cl)nc1`: the solubility (kinetic) is over 44.5 µg/mL.

In the case of `CCC(OC(=O)c1ccco1)C(=O)NC1CCCC1` (configuration not stated), the solubility (kinetic) is over 39.8 µg/mL.

On to `CCCN1C2CCCC1CC(NC(=O)c1cccc(OC)c1)C2` (configuration not stated), for which the solubility (kinetic) is over 47.5 µg/mL.

In the case of `CCOc1ccc(N(CC(=O)N2CCCCCC2)S(=O)(=O)c2ccc(C)cc2)cc1`, the kinetic solubility was found to be 23.6 µg/mL (≈ 54.8 µM).

`CS(=O)(=O)N(Cc1ccccc1Cl)c1ccc(C(=O)N2CCCC2)cc1` returned a kinetic solubility of 55.7 µg/mL (≈ 142 µM).

Regarding `O=C(NCc1ccc(F)cc1)C(c1ccccc1)c1ccccc1`, the kinetic solubility is under 0.7 µg/mL.

`Oc1ccc(C(=S)N2CCN(c3cccc(Cl)c3)CC2)cc1` came in with a solubility (kinetic) of 1.3 µg/mL (≈ 3.91 µM).

In turn, `CCCn1c(N)c(CC)c(=O)[nH]c1=O` displayed a kinetic solubility of over 29.6 µg/mL.

Regarding `COc1cccc(-c2onc3ccc(C(=O)/C=C/N(C)C)cc23)c1`, the solubility (kinetic) is 14.6 µg/mL (≈ 45.3 µM).

`CCC(C(=O)Nc1ccc(N2CCOCC2)c(S(=O)(=O)Nc2ccccc2OC)c1)c1ccccc1` (configuration not stated) yielded a kinetic solubility of 7.4 µg/mL (≈ 14.5 µM).

Turning to `O=C1NC2(CCCCC2)C(=O)N1CC(=O)N1CCc2ccccc21`, the solubility (kinetic) was 10.6 µg/mL (≈ 32.4 µM).

For the compound `CCC(=O)OC1(Cc2ccc(CC)cc2)CC(C)N(C)CC1C.Cl` (configuration not stated), the kinetic solubility is 46.9 µg/mL.

As to `CC(=O)c1cccc(Nc2nc(-c3cccnc3)cs2)c1`, the kinetic solubility amounted to 0.9 µg/mL (≈ 3.05 µM).

Consider `CCN1CCCC1CNC(=O)c1[nH]c2ccc(OC)cc2c1C` (configuration not stated), for which the solubility (kinetic) was over 47.3 µg/mL.

On to `CC1CCCN(C(=O)c2cc3ccccc3cc2O)C1` (configuration not stated), for which the kinetic solubility was found to be 38.5 µg/mL (≈ 143 µM).

`CCOC(=O)Nc1cccnc1Sc1ccc(Cl)cc1` yielded a solubility (kinetic) of 35.1 µg/mL (≈ 114 µM).

Compound `N#Cc1cc(Cl)c(NCC2CCCO2)cc1C#N` (configuration not stated) returned a solubility (kinetic) of 18.2 µg/mL (≈ 69.5 µM).

`Cc1ccc(S(=O)(=O)N2CC(=O)NC(=O)C2)cc1` came in with a kinetic solubility of over 40.2 µg/mL.

`CC(=O)c1c(C)nc(-c2cccc([N+](=O)[O-])c2)n1O` displayed a solubility (kinetic) of over 39.2 µg/mL.

The compound `Cc1ccc2cc(CCl)c(Cl)nc2c1` gave a solubility (kinetic) of 3.7 µg/mL (≈ 16.4 µM).

`CCC(=O)Nc1ccc2c(c1)nc1n2CCN(CCOC)C1` returned a solubility (kinetic) of over 45.4 µg/mL.

On to `O=C(Cn1cnc2ccccc21)Nc1cccc([N+](=O)[O-])c1`, for which the kinetic solubility came out at 42.8 µg/mL (≈ 144 µM).

For the compound `O=C(COC(=O)c1ccc(Br)o1)NCc1ccc2c(c1)OCO2`, the kinetic solubility came out at 29.9 µg/mL (≈ 78.2 µM).

`Cc1ccccc1C(=O)NC1CCN(CC(=O)N2CCCCC2C)CC1` (configuration not stated) yielded a solubility (kinetic) of over 53.6 µg/mL.

With `COCCCn1c(-c2cccs2)nc2nc3ccccc3nc21`, the solubility (kinetic) came out at 12.9 µg/mL (≈ 39.8 µM).

Take `Cc1ccc(F)cc1NC(=O)N1c2ccccc2NC(=O)CC1C` (configuration not stated): the solubility (kinetic) worked out at 42.7 µg/mL (≈ 130 µM).

`CCOC(=O)Cc1csc(-n2sc3ccccc3c2=O)n1` yielded a kinetic solubility of 29.8 µg/mL (≈ 93 µM).

Compound `COc1ccc(NC(=O)C2CC(c3ccc(Cl)cc3)=NO2)cc1` (configuration not stated) had a solubility (kinetic) of under 0.4 µg/mL.

Compound `CC1C(=O)N2CCCc3cc(NC(=O)C4CC4)cc1c32` (configuration not stated) displayed a solubility (kinetic) of 36.3 µg/mL (≈ 134 µM).

`CCN(C(=O)CCc1ccccc1)C1CCCCC1`: the solubility (kinetic) was 26.8 µg/mL (≈ 103 µM).

In turn, `Nc1c(C(=O)O)sc2nc(-c3ccccc3)cc(-c3ccc(F)cc3)c12` registered a kinetic solubility of 51.3 µg/mL (≈ 141 µM).

As for `O=C1Nc2ccc([N+](=O)[O-])cc2C1=Nc1cccc(CO)c1`, the solubility (kinetic) was over 44.6 µg/mL.

For `Cc1ccccc1NC(=O)CSC(=O)c1ccccc1`, the kinetic solubility was determined as 12.5 µg/mL (≈ 43.8 µM).

As for `CC(C)N(Cc1ccccc1)C(=O)COC(=O)C1CCCCC1`, the solubility (kinetic) is 46.6 µg/mL (≈ 147 µM).

The compound `CCC(C)NC(=O)CN1C(=O)NC2NC(=O)NC21` (configuration not stated) came in with a solubility (kinetic) of over 38.3 µg/mL.

As to `Cn1cnnc1SCC(=O)NC1CCCc2ccccc21` (configuration not stated), the kinetic solubility was over 45.4 µg/mL.
